Measurements published in patent US20230323296A1, “STEM CELL-LIKE MEMORY T CELLS AND USES THEREOF” (GEORGETOWN UNIVERSITY, priority 2020, published 2023).

How the values were obtained:
[1] = tested on: CD4 cells from the splenocytes of wild type (WT) mice; assay: In vitro assay of TSCM induction in activated CD4 cells (FACS); format: cell-based; settings: TCONV cells activated with IL-2/anti-CD3/anti-CD28, 72 hours, MEKi 1 uM, vs cells activated without MEK1/2 inhibitor; FIG. 2A
Description: T conventional (TCONV) cells (from mouse spleen), defined as CD4^+FoxP3^− cells, were activated (Act) by IL-2 with anti-CD3/anti-CD28 in the presence (+) or absence (−) of MEK1/2 inhibitor for 72 hours, and the number of Sca1^+CD62L^+CD44^−CD4^+ T cells was determined by flow cytometry sorting (FACS).
CD4 cells from the splenocytes of wild type (WT) mice were prepared by magnetic purification using Biolegend cell sorting kits, as per the manufacturer's instructions. Purified cells were activated by plating 1×10^6/ml in cell activation medium that contained rIL-2 (100 IU/ml), anti-CD3 (5 ug/ml), anti-CD28 (2.5 ug/ml) and MEKi (1 uM). Appropriate arms (only cell activation and only IL-2 treatment) were also included for valid comparisons. After 72 hours of incubation at 37° C., at 5% CO2 in a humidified incubator, cells were picked up and processed for FACS analysis of TSCM induction.

[2] = tested on: CD4+ T cells in the tumor microenvironment (TME); assay: In vivo TSCM generation in TC-1 tumor bearing mice (FACS of tumors); settings: MEKi 10 mg/Kg oral gavage, 15 doses
Description: Mice were treated and tumors were isolated. The frequency of CD4^+ cells in variously treated mice (UT, untreated; Vax; MEKi, MEK1/2 inhibitor only; and Vax +MEKi, both E7 and MEK inhibitor) were determined. Error bars represent mean±SEM. (^NSnon-significant, *p≤0.05, **p≤0.01). For Vax treated mice, The CTL epitope from HPV16 E749-57 (RAHYNIVTF, 100 μg/mouse) was used mixed with PADRE, a small 13-mer non-natural pan HLA DR-binding sequence that is a potent T helper cell epitope (20 μg/mouse-Celtek Bioscience, Franklin, TN), and QuilA (adjuvant, 10 μg/mouse-Brenntag, Westbury, NY). Two doses of the vaccine were administered subcutaneously (s.c.) every seven days starting at an average tumor volume of 0.07-0.08 cm^3. Three days after the second vaccination, mice were sacrificed and expression of various markers was analyzed in cells from the tumors by flow cytometry
The frequency of CD62L^+CD44^− CD4^+ T cells in variously treated mice as described for FIG. 1A were determined. Error bars represent mean±SEM. (^NSnon-significant, *p≤0.05, **p≤0.01).
TC-1 tumor bearing mice were treated with an MEK inhibitor (MEKi) (10 mg/Kg), for a total of 15 doses, given everyday by oral gavage, starting when tumor reached an average size of 0.05 cm^3. […] The single-cell suspended tumors were labelled with appropriately conjugated fluorophore conjugated antibodies and analyzed by FACS.

`N#CC(=C(N)Sc1ccc(N)cc1)c1ccccc1C(F)(F)F` [MEK1/2 inhibitor] was tested, and the “generation of Sca1+ TNAIVE CD4+ T cells” value [1] was “significantly enhanced”, the “numbers of CD4+ T cells in the tumor microenvironment (TME)” value ([2]; FIG. 1A) was “increases” and the “induction of CD4+ T cells with a naive-like phenotype (CD62L+CD44-) in the TME” value ([2]; FIG. 1B) was “significantly enhanced”.
